This passage reports melting point results from patent US6506749B2, “7-oxo-pyridopyrimidines (I)” (Syntex (U.S.A.) LLC, priority 2000, dated 2003).

Take `COC1CCC(Nc2ncc3cc(-c4ccccc4Cl)c(=O)n(C)c3n2)CC1.Cl` (stereo not drawn): the melting point (in general, the temperature of the solid-liquid transition) lay within 189 to 192 °C.

For the compound `CCCS(=O)(=O)N1CCC(Nc2ncc3cc(-c4ccccc4Cl)c(=O)n(C)c3n2)CC1.Cl`, the melting point was in the range of 193.3 to 194.1 °C.

`Cl.Cn1c(=O)c(-c2ccccc2Cl)cc2cnc(NC3CCN(S(=O)(=O)CC(F)(F)F)CC3)nc21` had a melting point of 215 to 219 °C.

The compound `Cl.Cn1c(=O)c(-c2ccccc2Cl)cc2cnc(NC3CCS(=O)(=O)C3)nc21` (stereo not drawn) yielded a melting point of 256 to 260 °C.

Compound `Cc1ccccc1-c1cc2cnc(NC3CCOCC3)nc2n(C)c1=O.Cl` yielded a melting point of 222.9 to 225.9 °C.

The compound `Cl.Cn1c(=O)c(-c2ccccc2Cl)cc2cnc(NC3CCOC3)nc21` (stereo not drawn) displayed a melting point of 193.9 to 194.5 °C.

Compound `Cl.Cn1c(=O)c(-c2ccccc2F)cc2cnc(NC3CCN(S(C)(=O)=O)CC3)nc21` yielded a melting point of 205 to 207.5 °C.

In turn, `Cl.Cn1c(=O)c(-c2ccccc2Cl)cc2cnc(NC3CCN(C(N)=O)CC3)nc21` showed a melting point of 192 to 202 °C.

For `CCCS(=O)(=O)N1CCC(Nc2ncc3cc(-c4ccccc4F)c(=O)n(C)c3n2)CC1.Cl`, the melting point lay in the range of 206 to 209 °C.

As for `Cl.Cn1c(=O)c(-c2ccccc2F)cc2cnc(NC3CCN(S(=O)(=O)C(F)(F)F)CC3)nc21`, the melting point was 213.5 to 221 °C.

With `Cl.Cn1c(=O)c(-c2ccccc2F)cc2cnc(NC3CCN(S(=O)(=O)CC(F)(F)F)CC3)nc21`, the melting point was 225.9 to 226.4 °C.

`COc1ccccc1-c1cc2cnc(NC3CCN(S(=O)(=O)C(C)C)CC3)nc2n(C)c1=O.Cl`: the melting point lay in the range of 157 to 163.1 °C.

With `CCCS(=O)(=O)N1CCC(Nc2ncc3cc(-c4ccccc4OC)c(=O)n(C)c3n2)CC1.Cl`, the melting point was 59.7 to 63.8 °C.

Regarding `Cl.O=c1c(-c2ccccc2Cl)cc2cnc(NC3CCS(=O)(=O)CC3)nc2n1CCO`, the melting point fell in the range of 182 to 186 °C.

In turn, `CS(=O)(=O)N1CCC(Nc2ncc3cc(-c4ccccc4Cl)c(=O)n(N)c3n2)CC1.Cl` yielded a melting point of 180.7 to 213.2 °C.

As for `Cl.Cn1c(=O)c(-c2ccccc2Cl)cc2cnc(NC3CCC4(CC3)OCC(C)(CO)CO4)nc21` (stereo not drawn), the melting point is 180.3 to 181.2 °C.

On to `Cc1ccccc1-c1cc2cnc(NC3CCS(=O)(=O)CC3)nc2n(C)c1=O.Cl`, for which the melting point was 240 to 258 °C.

As for `CC(C)(CO)Nc1ncc2cc(-c3ccccc3Cl)c(=O)n(N)c2n1.Cl`, the melting point is 145 to 163 °C.

Regarding `Cl.O=c1[nH]c2nc(NC3(CO)CCCC3)ncc2cc1-c1ccccc1Cl`, the melting point was in the range of 290 to 293 °C.

`Cl.O=c1[nH]c2nc(N[C@H]3CC[C@H](O)CC3)ncc2cc1-c1ccccc1Cl` displayed a melting point of 191.1 to 194.3 °C.

In turn, `Cl.Cn1c(=O)c(-c2ccccc2Cl)cc2cnc(NC3CCN(C=O)CC3)nc21` gave a melting point of 143 to 148 °C.

Turning to `Cl.Cn1c(=O)c(-c2ccccc2Cl)cc2cnc(NC3CCC(CO)CC3)nc21` (stereo not drawn), the melting point lay in the range of 153.6 to 157 °C.

Compound `Cl.Cn1c(=O)c(-c2ccccc2Cl)cc2cnc(NCC3CCC(O)CC3)nc21` (stereo not drawn) yielded a melting point of 148 to 151.5 °C.

`Cl.Cn1c(=O)c(-c2ccccc2Cl)cc2cnc(NC3CCC4(CC3)NC(=O)NC4=O)nc21` (stereo not drawn) came in with a melting point above 300 °C.

`Cl.Cn1c(=O)c(-c2ccccc2Cl)cc2cnc(NC3CCN(CCO)CC3)nc21` came in with a melting point of 265.9 to 266.6 °C.

For `Cl.Cn1c(=O)c(-c2ccccc2Cl)cc2cnc(NC3CCN(S(C)(=O)=O)CC3)nc21`, the melting point lay within 185 to 194 °C.

The compound `Cl.O=C1CCC(Nc2ncc3cc(-c4ccccc4Cl)c(=O)n(-c4ccc(F)cc4)c3n2)CC1` had a melting point of 242.7 to 243.6 °C.

In turn, `Cl.Cn1c(=O)c(-c2ccccc2Cl)cc2cnc(NC3CCN(CC(F)(F)F)CC3)nc21` showed a melting point of 180 to 183 °C.

In turn, `Cl.N#CCn1c(=O)c(-c2ccccc2Cl)cc2cnc(NC3CCOCC3)nc21` displayed a melting point of 230.2 to 230.4 °C.

Regarding `Cl.O=c1c(-c2ccccc2Cl)cc2cnc(NC3CCOCC3)nc2n1CCO`, the melting point was in the range of 217 to 220 °C.
